Patent publication US9867811B2, “Method of treating atherosclerosis in high triglyceride subjects” (NOVARTIS AG, priority 2011, dated 2018)

Tests used:
[1] = HDL-C in cynomolgus monkeys on chow or high carbohydrate diet; format: in vivo; settings: Anacetrapib 10 mg/kg, mean ± SD; for HDL-C % Δ vs day 0, Day 7, Chow / HDL-C % Δ vs day 0, Day 14, Chow: chow diet; for HDL-C % Δ vs day 0, Day 7, Chow / HDL-C % Δ vs day 0, Day 7, High CHO: day 7, Example 8 3 mg/kg; for HDL-C % Δ vs day 0, Day 14, Chow / HDL-C % Δ vs day 0, Day 14, High CHO: day 14, Example 8 3 mg/kg; for HDL-C % Δ vs day 0, Day 7, High CHO / HDL-C % Δ vs day 0, Day 14, High CHO: high carbohydrate diet
Source text: Normal male cynomolgus monkeys (n=17) weighing between 8-14 kg are placed on a high-carbohydrate, low-fat diet. The caloric composition of the diet is approximately 13.4% protein, 79.1% carbohydrate (sugar to starch ratio 50:50) and 7.5% fat. Calories are derived from standard monkey chow (LabDiet® 5047, PMI, Richmond, Ind. or LabDiet® 5000, Balanced Fiber diet, PMI, Richmond, Ind.) in quantities necessary to meet the protein and fat requirements, with the remaining calories provided by sugar-sweetened cereals, candies, and fruit (banana, orange, cantaloupe, honeydew, pineapple). The high-carbohydrate (CHO) diet will be fed for 18 days (4 days of pre-drug diet, 14 days of drug treatment), after which time they will return to their regular chow diets for a 14 day washout period followed by a second 14 day dosing phase of the study (normal diet).
Compound of Example 8 is dissolved at 30 mg/mL in 1M NaOH+ethanol:maisoel glyceride:propylene glycol:cremophor RH40 (10:36:9:45) and diluted 1:10 in ddH2O. […] The formulations are prepared each day (weekend doses are prepared on Friday) and stored stirring and protected from light at room temperature until dosing. Artificial flavor and color will be added to the dose when prepared.
The animals will ingest the compounds (1 mL/kg) voluntarily from a plastic syringe offered at their home cage at approximately 8 am daily. Animals will be fed 60 minutes after the dose is administered.
Blood collection will take place weekly during each dosing phase. Animals are fasted overnight (approximately 16 hours) prior to blood collection. Blood samples are collected from a saphenous vein via needle and syringe and put into 2 mL EDTA-coated tubes that are immediately placed on ice until centrifugation. Samples are centrifuged at 3,000 rpm for 20 minutes. The plasma is collected, divided into aliquots (listed below), and stored at −70° C. until analysis.

[2] = system: CETP; experiment: Ex vivo CETP activity in plasma of hamsters (saline or Triton WR-1339 treated); settings: hamster; for Inhibition of CETP activity, lower dose group, Triton WR-1339 group / Inhibition of CETP activity, lower dose group, saline group: oral gavage: Torcetrapib 5 mg/kg, Anacetrapib 1.5 mg/kg, Example 49 1.5 mg/kg, Example 8 0.75 mg/kg; for Inhibition of CETP activity, lower dose group, Triton WR-1339 group / Inhibition of CETP activity, higher dose group, Triton WR-1339 group: Triton WR-1339 100 mg/kg i.v.; for Inhibition of CETP activity, lower dose group, Triton WR-1339 group: not significant vs vehicle; for Inhibition of CETP activity, lower dose group, saline group / Inhibition of CETP activity, higher dose group, saline group: saline i.v.; for Inhibition of CETP activity, higher dose group, Triton WR-1339 group / Inhibition of CETP activity, higher dose group, saline group: oral gavage: Torcetrapib 10 mg/kg, Anacetrapib 3 mg/kg, Example 49 3 mg/kg, Example 8 1.5 mg/kg
Description: Nine- to ten-week-old, male golden Syrian hamsters were purchased from Japan SLC Inc. (Shizuoka, Japan). Animals underwent a more than 1-week acclimation period under the following conditions: 8:00/20:00 light/dark cycle, room temperature 23±2° C. […] During this time, animals received filtered (0.5 μm) water and a standard chow diet ad libitum.
Whole blood samples were collected using a heparin-washed syringe (Heparin sodium injection “Ajinomoto”; Ajinomoto, Tokyo, Japan) from the abdominal vein by venipuncture under isoflurane (Abbott Japan Co. Ltd.) inhalant anesthesia. After centrifugation at 15,000 rpm for 10 min at 4° C., heparinized plasma was prepared and stored at −80° C. until use.
CETP activity (RFU/min) was defined as the change in fluorescence intensity from 30 to 90 min.
The effect of an acute increase of plasma triglycerides in vivo (acute increase in triglyceride-rich particles) on the ability of Torcetrapib to alter plasma CETP activity, triglyceride and total cholesterol levels was investigated. Torcetrapib at doses of 3, 10 or 30 mg/kg or vehicle was administered once by gavage to hamsters fed a standard chow diet.
Compound or vehicle was administered once by gavage to hamsters fed a standard chow diet.

| SMILES | HDL-C % Δ vs day 0, Day 7, Chow [1] | HDL-C % Δ vs day 0, Day 14, Chow [1] | HDL-C % Δ vs day 0, Day 7, High CHO [1] | HDL-C % Δ vs day 0, Day 14, High CHO [1] | Inhibition of CETP activity, lower dose group, Triton WR-1339 group [2] | Inhibition of CETP activity, lower dose group, saline group [2] | Inhibition of CETP activity, higher dose group, Triton WR-1339 group [2] | Inhibition of CETP activity, higher dose group, saline group [2] |
| --- | --- | --- | --- | --- | --- | --- | --- | --- |
| COc1cc(F)c(C(C)C)cc1-c1ccc(C(F)(F)F)cc1CN1C(=O)O[C@H](c2cc(C(F)(F)F)cc(C(F)(F)F)c2)[C@@H]1C [Anacetrapib, reference compound] | 141 ± 45% | 136 ± 28% | 172 ± 34% | 184 ± 45% | 8% | 56% | 13% | 78% |
| CC[C@@H]1C[C@H](N(Cc2cc(C(F)(F)F)cc(C(F)(F)F)c2)c2ncc(-c3cnn(C)c3)cn2)C[C@H](CC)N1C(=O)O[C@H]1CC[C@H](C(=O)O)CC1 [Example 8] | 144 ± 57% | 142 ± 33% | 210 ± 24% | 241 ± 29% | 20% | 72% | 47% | 79% |
